Experimental data taken from patent publication US10722501B2 (BAYER AKTIENGESELLSCHAFT, priority 2016, dated 2020).

molecular target: T1, recombinant full-length human prolyl endopeptidase (PREP) (Homo sapiens, UniProt P48147); assay: Biochemical human prolyl endopeptidase (PREP) assay with fluorescently labelled substrate; conditions: substrate Z-Gly-Pro-AMC 50 μM, 32° C., 60 min; some as mean values from multiple independent determinations
T1 construct: To recombinant full-length human prolyl endopeptidase (PREP, R&D-Systems, 4308-SE); purchased R&D-Systems 4308-SE
T1 sequence (P48147 1-710): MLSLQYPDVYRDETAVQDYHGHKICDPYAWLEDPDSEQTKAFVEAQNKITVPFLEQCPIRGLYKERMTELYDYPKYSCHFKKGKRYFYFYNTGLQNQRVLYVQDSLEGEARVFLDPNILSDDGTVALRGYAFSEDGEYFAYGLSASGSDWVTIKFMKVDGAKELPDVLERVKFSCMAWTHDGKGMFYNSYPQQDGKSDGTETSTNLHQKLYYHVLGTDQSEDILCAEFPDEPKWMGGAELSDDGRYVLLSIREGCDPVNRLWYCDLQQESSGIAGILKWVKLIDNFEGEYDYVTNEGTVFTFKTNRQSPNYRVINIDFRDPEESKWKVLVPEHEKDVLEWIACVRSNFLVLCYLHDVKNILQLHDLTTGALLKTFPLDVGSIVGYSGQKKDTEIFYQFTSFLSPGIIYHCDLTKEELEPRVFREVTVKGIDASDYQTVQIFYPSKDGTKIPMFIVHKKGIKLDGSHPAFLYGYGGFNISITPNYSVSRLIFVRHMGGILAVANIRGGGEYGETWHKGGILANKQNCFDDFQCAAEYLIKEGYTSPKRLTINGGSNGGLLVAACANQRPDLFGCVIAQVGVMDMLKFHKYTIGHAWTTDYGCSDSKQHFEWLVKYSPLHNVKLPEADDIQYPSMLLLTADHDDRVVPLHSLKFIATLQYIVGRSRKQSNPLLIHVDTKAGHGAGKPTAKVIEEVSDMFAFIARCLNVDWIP
Method in brief: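 Initial rates of fluorescence increase from 50 μM Z-Gly-Pro-AMC cleavage (ex 360/em 465 nm, 60 min, 32° C) give percent PREP activity versus no-compound control, and IC50 is interpolated. Enzyme used at 0.4 nM (final, example) in Tris pH 7.5 with EDTA, GSH, BSA and Brij-35; compounds span 1 nM to 30 μM.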

Row | SMILES | IC50 [nM]
1 | O=C(C1CCCc2nn(Cc3ccc(F)c(Cl)c3)c(=O)n21)N1CC(O)C1 (racemic) [Example 95, (5RS)-2-(3-Chloro-4-fluorobenzyl)-5-[(3-hydroxyazetidin-1-yl)carbonyl]-5,6,7,8-tetrahydro[1,2,4]triazolo[4,3-a]pyridin-3(2H)-one] | 9
2 | O=C([C@@H]1CCCc2nn(Cc3ccc(F)cc3)c(=O)n21)N1C[C@@H](F)[C@@H](F)C1 [Example 452, (5S)-5-{[(3R,4S)-3,4-Difluoropyrrolidin-1-yl]carbonyl}-2-(4-fluorobenzyl)-5,6,7,8-tetrahydro[1,2,4]triazolo[4,3-a]pyridin-3(2H)-one] | 1.3
3 | O=C(C1CC(C(F)(F)F)Cc2nn(Cc3ccc(C(F)(F)F)nc3)c(=O)n21)N1CC[C@H](F)C1 (mixture of isomers) [Example 235, (5RS,7RS)-5-{[(3S)-3-Fluoropyrrolidin-1-yl]carbonyl}-7-(trifluoromethyl)-2-{[6-(trifluoromethyl)pyridin-3-yl]methyl}-5,6,7,8-tetrahydro[1,2,4]triazolo[4,3-a]pyridin-3(2H)-one] | 6.8
4 | COc1ccc(Cn2nc3n(c2=O)[C@H](C(=O)N2C[C@@H](F)[C@@H](F)C2)CCC3)cc1 [Example 453, (5S)-5-{[(3R,4S)-3,4-Difluoropyrrolidin-1-yl]carbonyl}-2-(4-methoxybenzyl)-5,6,7,8-tetrahydro[1,2,4]triazolo[4,3-a]pyridin-3(2H)-one] | 0.375
5 | CC1Cc2nn(Cc3ccc(C(F)(F)F)nc3)c(=O)n2C(C(=O)N2CC(F)C2)C1 (racemic) [Example 341, (5RS,7RS)-5-[(3-Fluoroazetidin-1-yl)carbonyl]-7-methyl-2-{[6-(trifluoromethyl)pyridin-3-yl]methyl}-5,6,7,8-tetrahydro[1,2,4]triazolo[4,3-a]pyridin-3(2H)-one] | 3.7
6 | O=C(C1CCCc2nn(Cc3ccc(Cl)nc3)c(=O)n21)N1CCC(F)(F)C1 (racemic) [Example 80, (5RS)-2-[(6-Chloropyridin-3-yl)methyl]-5-[(3,3-difluoropyrrolidin-1-yl)carbonyl]-5,6,7,8-tetrahydro[1,2,4]triazolo[4,3-a]pyridin-3(2H)-one] | 16
7 | O=C([C@@H]1CCCc2nn(Cc3cncc(Br)c3)c(=O)n21)N1CC[C@H](F)C1 [Example 509, (5S)-2-[(5-Bromopyridin-3-yl)methyl]-5-{[(3S)-3-fluoropyrrolidin-1-yl]carbonyl}-5,6,7,8-tetrahydro[1,2,4]triazolo[4,3-a]pyridin-3(2H)-one] | 0.7
8 | Cc1ccc(Cn2nc3n(c2=O)C(C(=O)N2CC(O)C2)CCC3)cc1 (single isomer, unassigned) [Example 121, (5RS)-5-[(3-Hydroxyazetidin-1-yl)carbonyl]-2-(4-methylbenzyl)-5,6,7,8-tetrahydro[1,2,4]triazolo[4,3-a]pyridin-3(2H)-one] | 4.3
9 | O=C([C@@H]1CCCc2nn(Cc3ccc(C(F)F)nc3)c(=O)n21)N1CCC(F)(F)C1 [Example 208, (5S)-2-{[6-(Difluoromethyl)pyridin-3-yl]methyl}-5-[(3,3-difluoropyrrolidin-1-yl)carbonyl]-5,6,7,8-tetrahydro[1,2,4]triazolo[4,3-a]pyridin-3(2H)-one] | 15
10 | O=C([C@@H]1CCC(F)(F)c2nn(Cc3ccc(Cl)cn3)c(=O)n21)N1CC[C@H](F)C1 [Example 555, (5S)-2-[(5-Chloropyridin-2-yl)methyl]-8,8-difluoro-5-{[(3S)-3-fluoropyrrolidin-1-yl]carbonyl}-5,6,7,8-tetrahydro[1,2,4]triazolo[4,3-a]pyridin-3(2H)-one] | 0.54
11 | O=C(C1CC(C(F)(F)F)Cc2nn(Cc3ncc(C(F)(F)F)cc3Cl)c(=O)n21)N1CCC(F)(F)C1 (single isomer, unassigned) [Example 565, (5RS,7RS)-2-{[3-Chloro-5-(trifluoromethyl)pyridin-2-yl]methyl}-5-[(3,3-difluoropyrrolidin-1-yl)carbonyl]-7-(trifluoromethyl)-5,6,7,8-tetrahydro[1,2,4]triazolo[4,3-a]pyridin-3(2H)-one] | 1.5
12 | O=C([C@@H]1CCCc2nn(Cc3ccc(Cl)cn3)c(=O)n21)N1CC[C@H](F)C1 [Example 508, (5S)-2-[(5-Chloropyridin-2-yl)methyl]-5-{[(3S)-3-fluoropyrrolidin-1-yl]carbonyl}-5,6,7,8-tetrahydro[1,2,4]triazolo[4,3-a]pyridin-3(2H)-one] | 0.91
13 | N#Cc1ccc(Cn2nc3n(c2=O)C(C(=O)N2CCCC2)CCC3)cn1 (racemic) [Example 35, 5-{[(5RS)-3-Oxo-5-(pyrrolidin-1-ylcarbonyl)-5,6,7,8-tetrahydro[1,2,4]triazolo[4,3-a]pyridin-2(3H)-yl]methyl}pyridine-2-carbonitrile] | 15
14 | O=C(C1CCc2nn(Cc3ccc(Cl)nc3)c(=O)n21)N1CC(F)C1 (racemic) [Example 169, (5RS)-2-[(6-Chloropyridin-3-yl)methyl]-5-[(3-fluoroazetidin-1-yl)carbonyl]-2,5,6,7-tetrahydro-3H-pyrrolo[2,1-c][1,2,4]triazol-3-one] | 31.5
15 | Cc1ccc(Cn2nc3n(c2=O)[C@H](C(=O)N2CCC4CC42)CCC3)cc1 (single isomer, unassigned) [Example 188] | 0.091
16 | O=C([C@@H]1CCCc2nn(Cc3ccc(C(F)F)nc3)c(=O)n21)N1C[C@@H](F)[C@@H](F)C1 [Example 207, (5S)-2-{[6-(Difluoromethyl)pyridin-3-yl]methyl}-5-{[(3R,4S)-3,4-difluoropyrrolidin-1-yl]carbonyl}-5,6,7,8-tetrahydro[1,2,4]triazolo[4,3-a]pyridin-3(2H)-one] | 4.2
17 | CC(c1ccc(C(F)(F)F)nc1)n1nc2n(c1=O)[C@H](C(=O)N1CC[C@H](F)C1)CCC2 (single isomer, unassigned) [Example 216] | 0.56
18 | O=C([C@@H]1CCCc2nn(Cc3ccc(F)cc3F)c(=O)n21)N1C[C@@H](F)[C@@H](F)C1 [Example 489, (5S)-2-(2,4-Difluorobenzyl)-5-{[(3R,4S)-3,4-difluoropyrrolidin-1-yl]carbonyl}-5,6,7,8-tetrahydro[1,2,4]triazolo[4,3-a]pyridin-3(2H)-one] | 0.11
19 | O=C([C@@H]1CCCc2nn(Cc3nccc(C(F)(F)F)c3Cl)c(=O)n21)N1CC(O)C1 [Example 390, (5S)-2-{[3-Chloro-4-(trifluoromethyl)pyridin-2-yl]methyl}-5-[(3-hydroxyazetidin-1-yl)carbonyl]-5,6,7,8-tetrahydro[1,2,4]triazolo[4,3-a]pyridin-3(2H)-one] | 13.5
20 | Cc1ccc(Cn2nc3n(c2=O)C(C(=O)N2CC(F)(F)C2)CCC3)cc1 (racemic) [Example 114, (5RS)-5-[(3,3-Difluoroazetidin-1-yl)carbonyl]-2-(4-methylbenzyl)-5,6,7,8-tetrahydro[1,2,4]triazolo[4,3-a]pyridin-3(2H)-one] | 1.95
21 | O=C([C@@H]1CCCc2nn(Cc3cncc(C(F)(F)F)c3)c(=O)n21)N1CCCC1 [Example 535, (5S)-5-(Pyrrolidin-1-ylcarbonyl)-2-{[5-(trifluoromethyl)pyridin-3-yl]methyl}-5,6,7,8-tetrahydro[1,2,4]triazolo[4,3-a]pyridin-3(2H)-one] | 5.1
22 | O=C(C1CCCc2nn(Cc3cccc(C(F)(F)F)c3)c(=O)n21)N1CCC(F)(F)C1 (racemic) [Example 47, (5RS)-5-[(3,3-Difluoropyrrolidin-1-yl)carbonyl]-2-[3-(trifluoromethyl)benzyl]-5,6,7,8-tetrahydro[1,2,4]triazolo[4,3-a]pyridin-3(2H)-one] | 1.6
23 | O=C([C@@H]1CCCc2nn(Cc3csc(C(F)(F)F)n3)c(=O)n21)N1CC[C@H](F)C1 [Example 365, (5S)-5-{[(3S)-3-Fluoropyrrolidin-1-yl]carbonyl}-2-{[2-(trifluoromethyl)-1,3-thiazol-4-yl]methyl}-5,6,7,8-tetrahydro[1,2,4]triazolo[4,3-a]pyridin-3(2H)-one] | 2.3
24 | O=C(C1CCCc2nn(Cc3cc(C(F)(F)F)ccc3C(F)(F)F)c(=O)n21)N1CCCC1 (racemic) [Example 65, (5RS)-2-[2,5-Bis(trifluoromethyl)benzyl]-5-(pyrrolidin-1-ylcarbonyl)-5,6,7,8-tetrahydro[1,2,4]triazolo[4,3-a]pyridin-3(2H)-one] | 1.85
25 | O=C([C@@H]1CCCc2nn(Cc3ncc(C(F)(F)F)cc3Cl)c(=O)n21)N1CC[C@H](F)C1 [Example 405, (5S)-2-{[3-Chloro-5-(trifluoromethyl)pyridin-2-yl]methyl}-5-{[(3S)-3-fluoropyrrolidin-1-yl]carbonyl}-5,6,7,8-tetrahydro[1,2,4]triazolo[4,3-a]pyridin-3(2H)-one] | 0.225
